23 compounds from patent US12264156B2, “Compounds and pharmaceutical compositions thereof for the treatment of diseases” (GALAPAGOS NV, priority 2018, dated 2025) can be followed below.

For experiment [1], the target named is T1, SIK2 (Homo sapiens, UniProt Q9H0K1).
T1 construct: purchased ThermoFisher Scientific PV4792
The experiment in a line: ADP-Glo kinase assay, SIK2. The format is biochemical. The settings on record: ADP-Glo SIK kinase assay. In short, it runs like this:
(§1)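 Kinase reactions (enzyme-substrate mix plus ATP) ran 120 min at room temperature for each of SIK3 and SIK2. Signal came from ADP-Glo: unconsumed ATP removed (40 min), ADP reconverted and detected by luciferase/luciferin (30 min), with luminescence tracking kinase activity. 10 μM staurosporine and 1% DMSO (final) served as controls.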
(ADP-Glo first removes unused ATP, then detects ADP through luciferase.)

Experiment [2] has as its target T2, SIK3 (Homo sapiens, UniProt Q9Y2K2).
T2 construct: purchased SignalChem S12-11G-100
The experiment in a line: ADP-Glo kinase assay, SIK3. In kind it is biochemical. The following applies: ADP-Glo SIK kinase assay. The gist of the method: as §1

In experiment [3] the test system is LPS-induced TNFα in monocyte-derived macrophages (MdM). The experiment in a line: MdM assay: LPS-triggered TNFα (ELISA). The format is cell-based, human. The following applies: Homo sapiens, Macrophage, 20 h. The gist of the method: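 Compound added 1 h before LPS (200 ng/mL final) to day-10 macrophages derived from magnetically isolated CD14+ human blood monocytes, DMSO held at 0.2%. TNFα secreted over 20 h of stimulation quantified by ELISA against a standard curve.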
In general terms: An ELISA detects its analyte on a solid surface through an enzyme-linked reagent.

Setting [4] is: monocyte-derived macrophages, LPS 200 ng/mL, supernatant after 20 h, read-out: TNFα EC50.

The structures appear in SMILES notation. Like-named read-outs stand apart in the source and are kept apart here.

T2 sequence (Q9Y2K2 whole entry): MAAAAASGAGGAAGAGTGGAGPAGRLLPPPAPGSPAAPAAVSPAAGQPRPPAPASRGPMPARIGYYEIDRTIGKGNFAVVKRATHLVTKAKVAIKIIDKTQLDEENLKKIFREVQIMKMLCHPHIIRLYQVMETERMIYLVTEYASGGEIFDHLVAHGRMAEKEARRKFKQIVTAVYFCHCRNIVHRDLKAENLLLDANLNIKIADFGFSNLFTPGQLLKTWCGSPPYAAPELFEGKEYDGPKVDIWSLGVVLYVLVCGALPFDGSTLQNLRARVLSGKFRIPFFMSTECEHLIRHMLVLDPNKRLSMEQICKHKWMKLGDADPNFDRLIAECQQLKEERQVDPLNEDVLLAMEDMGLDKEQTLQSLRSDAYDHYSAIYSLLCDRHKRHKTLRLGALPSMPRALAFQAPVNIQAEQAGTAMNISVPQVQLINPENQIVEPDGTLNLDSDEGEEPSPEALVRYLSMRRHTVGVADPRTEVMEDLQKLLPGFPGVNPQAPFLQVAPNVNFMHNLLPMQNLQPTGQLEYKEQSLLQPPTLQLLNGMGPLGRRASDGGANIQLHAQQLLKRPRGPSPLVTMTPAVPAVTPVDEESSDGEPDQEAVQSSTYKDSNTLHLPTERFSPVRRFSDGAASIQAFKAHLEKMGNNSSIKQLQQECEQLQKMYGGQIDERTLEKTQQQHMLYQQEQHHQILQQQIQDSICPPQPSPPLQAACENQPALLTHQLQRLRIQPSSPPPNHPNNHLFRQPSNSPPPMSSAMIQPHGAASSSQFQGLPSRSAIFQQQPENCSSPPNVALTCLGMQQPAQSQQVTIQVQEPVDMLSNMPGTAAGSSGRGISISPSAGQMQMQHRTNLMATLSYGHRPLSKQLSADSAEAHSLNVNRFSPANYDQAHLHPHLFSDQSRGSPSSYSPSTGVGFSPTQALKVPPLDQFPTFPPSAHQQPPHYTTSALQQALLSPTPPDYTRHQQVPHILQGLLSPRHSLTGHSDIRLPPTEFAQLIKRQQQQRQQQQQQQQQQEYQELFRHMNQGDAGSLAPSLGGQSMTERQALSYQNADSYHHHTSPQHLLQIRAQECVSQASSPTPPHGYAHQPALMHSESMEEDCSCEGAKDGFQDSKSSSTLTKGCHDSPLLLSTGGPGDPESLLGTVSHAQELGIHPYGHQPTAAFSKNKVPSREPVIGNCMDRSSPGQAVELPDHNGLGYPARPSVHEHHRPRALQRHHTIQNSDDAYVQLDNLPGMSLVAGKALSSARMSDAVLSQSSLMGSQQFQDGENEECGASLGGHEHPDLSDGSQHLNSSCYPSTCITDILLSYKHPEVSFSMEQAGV
T1 sequence (Q9H0K1 whole entry): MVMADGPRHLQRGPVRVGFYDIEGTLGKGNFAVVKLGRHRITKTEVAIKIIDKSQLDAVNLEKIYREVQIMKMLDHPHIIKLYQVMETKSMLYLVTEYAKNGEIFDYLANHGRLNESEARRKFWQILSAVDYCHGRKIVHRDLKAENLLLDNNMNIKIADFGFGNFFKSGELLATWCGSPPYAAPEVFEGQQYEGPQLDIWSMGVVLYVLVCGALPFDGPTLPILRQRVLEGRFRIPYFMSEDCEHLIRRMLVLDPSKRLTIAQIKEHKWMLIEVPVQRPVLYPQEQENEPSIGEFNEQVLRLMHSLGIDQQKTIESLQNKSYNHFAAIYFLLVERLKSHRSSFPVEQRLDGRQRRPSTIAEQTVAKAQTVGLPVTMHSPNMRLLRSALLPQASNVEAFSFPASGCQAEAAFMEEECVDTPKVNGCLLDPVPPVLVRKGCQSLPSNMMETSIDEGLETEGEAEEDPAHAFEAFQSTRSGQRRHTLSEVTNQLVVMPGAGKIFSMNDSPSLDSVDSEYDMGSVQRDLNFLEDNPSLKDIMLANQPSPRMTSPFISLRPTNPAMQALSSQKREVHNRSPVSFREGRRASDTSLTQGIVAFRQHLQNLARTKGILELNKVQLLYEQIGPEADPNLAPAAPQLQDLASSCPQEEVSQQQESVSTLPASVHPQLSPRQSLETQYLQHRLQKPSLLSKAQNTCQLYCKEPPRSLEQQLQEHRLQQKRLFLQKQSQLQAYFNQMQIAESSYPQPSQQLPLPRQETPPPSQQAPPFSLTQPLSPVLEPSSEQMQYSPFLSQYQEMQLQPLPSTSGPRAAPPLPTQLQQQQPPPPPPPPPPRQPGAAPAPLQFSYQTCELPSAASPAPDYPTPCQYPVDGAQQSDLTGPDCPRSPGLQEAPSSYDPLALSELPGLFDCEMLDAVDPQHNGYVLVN

The IC50 is the midpoint of a concentration-inhibition curve. A word on the EC50: it is the concentration giving half of the maximal effect. Take `COc1cc(-c2cnc3cc(OCCN4CCS(=O)(=O)CC4)ccn23)cc2c1C(=O)N(CC(F)(F)F)CC2` [compound 41, 6-[7-[2-(1,1-dioxo-1,4-thiazinan-4-yl)ethoxy]imidazo[1,2-a]pyridin-3-yl]-8-methoxy-2-(2,2,2-trifluoroethyl)-3,4-dihydroisoquinolin-1-one]: the IC50 in experiment [1] and in experiment [2] was 0.01 to 10 nM in each case. In addition, the EC50 in experiment [3] (setting [4]) was 1000 to 5000 nM.

As to `COc1cc(-c2cnc3cc(OC[C@H]4CCCCN4C)ccn23)cc(OC(F)F)c1C(=O)NC1CC1` [compound 111, N-cyclopropyl-2-(difluoromethoxy)-6-methoxy-4-[7-[[(2R)-1-methyl-2-piperidyl]methoxy]imidazo[1,2-a]pyridin-3-yl]benzamide], the IC50 in experiment [1] and in experiment [2] was 0.01 to 10 nM throughout. The EC50 in experiment [3] (setting [4]) is 100 to 1000 nM.

In the case of `COc1cc(-c2cnc3cc(OCCCN4CCCC4)ccn23)cc(OC(F)F)c1C(=O)NC1CC1` [compound 275, N-cyclopropyl-2-(difluoromethoxy)-6-methoxy-4-[7-(3-pyrrolidin-1-ylpropoxy)imidazo[1,2-a]pyridin-3-yl]benzamide], the IC50 in experiment [1] and in experiment [2] was 0.01 to 10 nM throughout. Also, in experiment [3] (setting [4]), the half-maximal effective concentration (EC50) is 100 to 1000 nM.

Regarding `COc1cc(-c2cnc3cc(OCCC4CCCN4C)ccn23)cc2c1C(=O)N(CC(F)(F)F)CC2` (stereo not drawn) [Cpd 122, 8-methoxy-6-[7-[2-(1-methylpyrrolidin-2-yl)ethoxy]imidazo[1,2-a]pyridin-3-yl]-2-(2,2,2-trifluoroethyl)-3,4-dihydroisoquinolin-1-one], the half-maximal inhibitory concentration (IC50) in experiment [1] and in experiment [2] was 0.01 to 10 nM in each case. In experiment [3] (setting [4]), the EC50 fell in the range of 100 to 1000 nM.

As for `CCOC(=O)C1(F)CCN(CCCOc2ccn3c(-c4cc(OC)c(C(=O)NC5CC5)c(OC(F)F)c4)cnc3c2)CC1` [Cpd 363, ethyl 1-[3-[3-[4-(cyclopropylcarbamoyl)-3-(difluoromethoxy)-5-methoxy-phenyl]imidazo[1,2-a]pyridin-7-yl]oxypropyl]-4-fluoro-piperidine-4-carboxylate], the IC50 in experiment [1] and in experiment [2] was 0.01 to 10 nM in each case. In experiment [3] (setting [4]), the EC50 was 0.1 to 100 nM.

`COc1cc(-c2cnc3cc(OCCN4CCOC[C@@H]4C)ccn23)cc(OC(F)F)c1C(=O)NC1CC1` [compound 233, N-cyclopropyl-2-(difluoromethoxy)-6-methoxy-4-[7-[2-[(3S)-3-methylmorpholin-4-yl]ethoxy]imidazo[1,2-a]pyridin-3-yl]benzamide]: the IC50 in experiment [1] and in experiment [2] was 0.01 to 10 nM each time. In addition, the half-maximal effective concentration (EC50) in experiment [3] (setting [4]) lay within 100 to 1000 nM.

For the compound `COc1cc(-c2cnc3cc(OCCN4C5CCC4COC5)ccn23)cc(OC(F)F)c1C(=O)NC1CC1` [compound 193, N-cyclopropyl-2-(difluoromethoxy)-6-methoxy-4-[7-[2-(3-oxa-8-azabicyclo [3.2.1]octan-8-yl)ethoxy]imidazo[1,2-a]pyridin-3-yl]benzamide], the IC50 in experiment [1] and in experiment [2] was 0.01 to 10 nM each time. Further, in experiment [3] (read-out: TNFα EC50 (nM)), the EC50 was 100 to 1000 nM.

For the compound `COc1cc(-c2cnc3cc(OCCN4C[C@@H]5C[C@H]4CO5)ccn23)cc(OC(F)F)c1C(=O)NC1CC1` [compound 206, N-cyclopropyl-2-(difluoromethoxy)-6-methoxy-4-[7-[2-[(1S,4S)-2-oxa-5-azabicyclo[2.2.1]heptan-5-yl]ethoxy]imidazo[1,2-a]pyridin-3-yl]benzamide], the half-inhibitory concentration (IC50) in experiment [1] and in experiment [2] was 0.01 to 10 nM throughout. In experiment [3] (setting [4]), the EC50 is 100 to 1000 nM.

For `COc1cc(-c2cnc3cc(OCCCN(C)C)ccn23)cc(OC(F)F)c1C(=O)NC1CC1` [Cpd 13], the IC50 in experiment [1] and in experiment [2] was 0.01 to 10 nM in each case. In experiment [3] (setting [4]), the 50% effective concentration (EC50) lay within 0.1 to 100 nM.

For the compound `CNc1cc(-c2cnc3cc(OCCN(C)C)ccn23)cc2c1C(=O)N(CC(F)(F)F)CC2` [compound 167, 6-[7-[2-(dimethylamino)ethoxy]imidazo[1,2-a]pyridin-3-yl]-8-(methylamino)-2-(2,2,2-trifluoroethyl)-3,4-dihydroisoquinolin-1-one], the half-maximal inhibitory concentration (IC50) was 0.01 to 10 nM in experiment [1] and 10 to 100 nM in experiment [2]. Besides, the EC50 in experiment [3] (setting [4]) is above 5000 nM.

As for `COc1cc(-c2cnc3cc(OCCCN4CCNCC4)ccn23)cc(OC(F)F)c1C(=O)NC1CC1` [compound 278, N-cyclopropyl-2-(difluoromethoxy)-6-methoxy-4-[7-(3-piperazin-1-ylpropoxy)imidazo[1,2-a]pyridin-3-yl]benzamide], the 50% inhibitory concentration (IC50) in experiment [1] and in experiment [2] was 0.01 to 10 nM each time. Moreover, in experiment [3] (setting [4]), the EC50 was 1000 to 5000 nM.

For the compound `COc1cc(-c2cnc3cc(OCC(O)CN4CCOCC4)ccn23)cc(OC(F)F)c1C(=O)NC1CC1` (stereo not drawn) [Cpd 330, N-cyclopropyl-2-(difluoromethoxy)-4-[7-(2-hydroxy-3-morpholino-propoxy)imidazo[1,2-a]pyridin-3-yl]-6-methoxy-benzamide], the IC50 in experiment [1] and in experiment [2] was 0.01 to 10 nM in each case. Besides, the EC50 in experiment [3] (setting [4]) is 0.1 to 100 nM.

As to `COc1cc(-c2cnc3cc(OC[C@H]4CCCN4C)ccn23)cc2c1C(=O)N(CC(F)(F)F)CC2` [compound 124, 8-methoxy-6-[7-[[(2R)-1-methylpyrrolidin-2-yl]methoxy]imidazo[1,2-a]pyridin-3-yl]-2-(2,2,2-trifluoroethyl)-3,4-dihydroisoquinolin-1-one], the IC50 in experiment [1] and in experiment [2] was 0.01 to 10 nM in each case. For the same compound, in experiment [3] (setting [4]), the concentration for a half-maximal effect (EC50) was in the range of 100 to 1000 nM.

`CCN(CC)CCOc1ccn2c(-c3cc4c(c(OC)c3)C(=O)N(CC(F)(F)F)CC4)cnc2c1` [compound 128, 6-[7-[2-(diethylamino)ethoxy]imidazo[1,2-a]pyridin-3-yl]-8-methoxy-2-(2,2,2-trifluoroethyl)-3,4-dihydroisoquinolin-1-one]: the IC50 in experiment [1] and in experiment [2] was 0.01 to 10 nM in each case. In experiment [3] (setting [4]), the EC50 is 100 to 1000 nM.

On to `CCN1CCCCC1COc1ccn2c(-c3cc(OC)c(C(=O)NC4CC4)c(OC(F)F)c3)cnc2c1` (stereo not drawn) [compound 83, N-cyclopropyl-2-(difluoromethoxy)-4-[7-[(1-ethyl-2-piperidyl)methoxy]imidazo [1,2-a]pyridin-3-yl]-6-methoxy-benzamide], for which the half-inhibitory concentration (IC50) in experiment [1] and in experiment [2] was 0.01 to 10 nM throughout. For the same compound, the concentration for a half-maximal effect (EC50) in experiment [3] (setting [4]) fell in the range of 100 to 1000 nM.

On to `COc1cc(-c2cnc3cc(OCCCN4CCS(=O)(=O)CC4)ccn23)cc(OC(F)F)c1C(=O)NC1CC1` [Cpd 331, N-cyclopropyl-2-(difluoromethoxy)-4-[7-[3-(1,1-dioxo-1,4-thiazinan-4-yl)propoxy]imidazo[1,2-a]pyridin-3-yl]-6-methoxy-benzamide], for which the IC50 in experiment [1] and in experiment [2] was 0.01 to 10 nM each time. For the same compound, the 50% effective concentration (EC50) in experiment [3] (setting [4]) was 100 to 1000 nM.

On to `COc1cc(-c2cnc3cc(OCCN4CCOC[C@H]4C)ccn23)cc(OC(F)F)c1C(=O)NC1CC1` [compound 234, N-cyclopropyl-2-(difluoromethoxy)-6-methoxy-4-[7-[2-[(3R)-3-methylmorpholin-4-yl]ethoxy]imidazo[1,2-a]pyridin-3-yl]benzamide], for which the 50% inhibitory concentration (IC50) in experiment [1] and in experiment [2] was 0.01 to 10 nM throughout. Moreover, the EC50 in experiment [3] (setting [4]) was in the range of 100 to 1000 nM.

For `CCNCCOc1ccn2c(-c3cc(OC)c(C(=O)NC4CC4)c(OC(F)F)c3)cnc2c1` [compound 37, N-cyclopropyl-2-(difluoromethoxy)-4-[7-[2-(ethylamino)ethoxy]imidazo[1,2-a]pyridin-3-yl]-6-methoxy-benzamide], the IC50 in experiment [1] and in experiment [2] was 0.01 to 10 nM in each case. For the same compound, the concentration giving a half-maximal response (EC50) in experiment [3] (setting [4]) lay in the range of 100 to 1000 nM.

With `CN(C)CCOc1ccn2c(-c3cc(OC(F)F)c(C(=O)NC4CC4)c(OC(F)F)c3)cnc2c1` [compound 156, N-cyclopropyl-2,6-bis(difluoromethoxy)-4-[7-[2-(dimethylamino)ethoxy]imidazo[1,2-a]pyridin-3-yl]benzamide], the IC50 in experiment [1] and in experiment [2] was 0.01 to 10 nM each time. For the same compound, in experiment [3] (setting [4]), the EC50 was 100 to 1000 nM.

Turning to `CN(C)CCOc1ccn2c(-c3cc4c(c(OC(F)F)c3)C(=O)N(CC(F)F)CC4)cnc2c1` [Cpd 150, 2-(2,2-difluoroethyl)-8-(difluoromethoxy)-6-[7-[2-(dimethylamino)ethoxy]imidazo[1,2-a]pyridin-3-yl]-3,4-dihydroisoquinolin-1-one], the IC50 in experiment [1] and in experiment [2] was 0.01 to 10 nM in each case. Besides, in experiment [3] (setting [4]), the EC50 was in the range of 100 to 1000 nM.

Turning to `COc1cc(-c2cnc3cc(OC[C@H]4CCCN4C)ccn23)cc(OC(F)F)c1C(=O)NC1CC1` [compound 81, N-cyclopropyl-2-(difluoromethoxy)-6-methoxy-4-[7-[[(2R)-1-methylpyrrolidin-2-yl]methoxy]imidazo[1,2-a]pyridin-3-yl]benzamide], the IC50 in experiment [1] and in experiment [2] was 0.01 to 10 nM each time. Moreover, in experiment [3] (setting [4]), the EC50 is 100 to 1000 nM.

Turning to `COc1cc(-c2cnc3cc(OCC4(F)CN(C(=O)OC(C)(C)C)C4)ccn23)cc2c1C(=O)N(CC(F)(F)F)CC2` [compound 248, tert-butyl 3-fluoro-3-[[3-[8-methoxy-1-oxo-2-(2,2,2-trifluoroethyl)-3,4-dihydroisoquinolin-6-yl]imidazo[1,2-a]pyridin-7-yl]oxymethyl]azetidine-1-carboxylate], the IC50 in experiment [1] and in experiment [2] was 0.01 to 10 nM throughout. For the same compound, in experiment [3] (setting [4]), the EC50 lay within 100 to 1000 nM.

In the case of `COc1cc(-c2cnc3cc(OCCN4CCCCC4)ccn23)cc(OC(F)F)c1C(=O)NC1CC1` [compound 10, N-cyclopropyl-2-(difluoromethoxy)-6-methoxy-4-[7-[2-(1-piperidyl)ethoxy]imidazo [1,2-a]pyridin-3-yl]benzamide], the half-inhibitory concentration (IC50) in experiment [1] and in experiment [2] was 0.01 to 10 nM throughout. In experiment [3] (setting [4]), the concentration giving a half-maximal response (EC50) fell in the range of 0.1 to 100 nM.
